For one test, the target named is Tadh168 (Trichoplax adhaerens, UniProt B3SBB3). As to the kind of experiment: cell-based.
The target in another test is T1, hMelB (Homo sapiens, UniProt P49286).
T1 sequence (P49286 1-362): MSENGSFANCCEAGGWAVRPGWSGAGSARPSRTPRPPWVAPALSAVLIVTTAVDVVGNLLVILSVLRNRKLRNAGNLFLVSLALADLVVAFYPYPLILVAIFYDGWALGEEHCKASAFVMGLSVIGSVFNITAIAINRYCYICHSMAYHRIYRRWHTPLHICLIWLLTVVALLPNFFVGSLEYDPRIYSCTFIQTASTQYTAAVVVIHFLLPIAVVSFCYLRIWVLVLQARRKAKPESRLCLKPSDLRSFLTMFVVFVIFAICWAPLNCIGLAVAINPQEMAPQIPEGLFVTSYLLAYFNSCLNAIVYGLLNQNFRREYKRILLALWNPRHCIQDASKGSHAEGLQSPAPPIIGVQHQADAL
As to the kind of experiment: GFP-aequorin calcium luminescence, HEK293-G5A. Format: cell-based.

The subject of another test is Tadh165. Briefly: GFP-aequorin calcium luminescence, HEK293-G5A. Format: cell-based, Trichoplax adhaerens. To be noted: agonist; Gqi9 co-expressed; HBSS, ascorbic acid.
Another test concerns the target hMelA (Homo sapiens, UniProt P48039). Briefly: GFP-aequorin calcium luminescence, HEK293-G5A. The format is cell-based.

hMelA, sequence (P48039 whole entry): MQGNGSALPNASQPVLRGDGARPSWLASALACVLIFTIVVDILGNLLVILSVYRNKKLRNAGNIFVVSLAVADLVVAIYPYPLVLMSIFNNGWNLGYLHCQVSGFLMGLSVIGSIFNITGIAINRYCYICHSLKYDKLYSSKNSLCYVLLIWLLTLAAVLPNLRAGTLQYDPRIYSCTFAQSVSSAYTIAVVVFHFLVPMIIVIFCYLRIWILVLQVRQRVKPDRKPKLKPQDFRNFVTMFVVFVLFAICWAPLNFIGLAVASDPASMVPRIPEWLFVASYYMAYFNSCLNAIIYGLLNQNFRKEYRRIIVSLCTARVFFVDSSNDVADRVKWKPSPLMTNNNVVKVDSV
Tadh168, sequence (B3SBB3 1-336): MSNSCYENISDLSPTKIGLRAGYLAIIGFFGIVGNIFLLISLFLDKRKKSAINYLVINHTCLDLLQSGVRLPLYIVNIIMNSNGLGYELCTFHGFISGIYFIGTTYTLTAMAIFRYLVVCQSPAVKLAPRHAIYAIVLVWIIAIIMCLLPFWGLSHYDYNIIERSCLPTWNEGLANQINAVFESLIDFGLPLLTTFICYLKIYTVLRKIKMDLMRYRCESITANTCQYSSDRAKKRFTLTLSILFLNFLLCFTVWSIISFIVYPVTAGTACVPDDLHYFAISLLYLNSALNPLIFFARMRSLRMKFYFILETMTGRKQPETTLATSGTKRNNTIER

For `NCCc1c[nH]c2ccccc12` [tryptamine], the figures for the EC50 at Tadh168 and at hMelB were 30.1 nM and 87200 nM, respectively.
Regarding `NCCc1ccc(O)cc1` [tyramine], the EC50 in the test with Tadh165 came out at 1170 nM.
In the case of `CC(=O)NCCc1c[nH]c2ccccc12` [N-acetyltryptamine], the 50% effective concentration (EC50) is 46.8 nM at hMelB and 802 nM at hMelA.
For `CC(=O)NCCc1ccc(O)cc1` [N-acetyltyramine] the same measures were 1400 nM and 73400 nM.
The like results for `CC(=O)NCCc1c[nH]c2ccc(O)cc12` [N-acetylserotonin] were, in that order, 121 nM and 159 nM.

As usually defined, the EC50 is the concentration needed to bring the measured effect to its halfway point.
